`*C(CC(C)C)C(=O)Nc1ccc(Oc2ccc(NC(=O)Nc3ccc(Cc4ccc(NC(=O)Nc5ccc(Oc6ccc(NC(=O)C(CC(C)C)n7c(=O)c8cc9c(=O)n(*)c(=O)c9cc8c7=O)cc6)cc5)cc4)cc3)cc2)cc1` (repeat unit) had a glass transition temperature of 181.40 °C.
With `*CC#CC#CCOc1ccc(C(=O)OCCN(CCOC(=O)c2ccc(O*)cc2)c2ccc(/N=N/c3ccc(/N=N/c4cc(C)c([N+](=O)[O-])c(C)c4)cc3)cc2)cc1` (repeat unit), the glass transition temperature amounted to 115.00 °C.
As for `*CC#CC#CCOc1ccc(C(=O)OCCN(CCOC(=O)c2ccc(O*)cc2)c2ccc(/N=N/c3ccc(C#N)cc3)cc2)cc1` (repeat unit), the figure is 121.00 °C.
`*CCC(=O)Nc1ccc(Oc2cccc(NC(=O)CCN3C(=O)c4ccc(C(=O)c5ccc6c(c5)C(=O)N(*)C6=O)cc4C3=O)c2)cc1` (repeat unit) displayed a glass transition temperature of 224.00 °C.
The same measure for `*CCC(=O)O*` (repeat unit): -24.00 °C.
In turn, `*CCC(C)CC(=O)O*` (repeat unit) displayed a glass transition temperature of -71.50 °C.
For the compound `*CCC(C)CC(C)(C)CNC(=O)c1ccc(C(=O)N*)cc1` (repeat unit), the glass transition temperature came to 147.00 °C.
Compound `*CCC(C)CCOC(=O)CCCCC(=O)O*` (repeat unit) gave a glass transition temperature of -78.60 °C.
The same measure for `*CCC1CC(=O)N(*)C1=O` (repeat unit): 131.00 °C; for `*CCCC(=O)N*` (repeat unit): 62.80 °C; for `*CCCC(=O)Nc1ccc(Cc2ccc(NC(=O)CCCN3C(=O)c4ccc(C(=O)c5ccc6c(c5)C(=O)N(*)C6=O)cc4C3=O)cc2)cc1` (repeat unit): 195.00 °C.
As for `*CCCC(=O)O*` (repeat unit), the figure is 1.50 °C.
For the compound `*CCCC(=O)Oc1ccc(OC(=O)c2ccc3c(c2)C(=O)N(*)C3=O)cc1` (repeat unit), the glass transition temperature was 132.00 °C.
Consider `*CCCC(C)(C)CCCNC(=O)c1ccc(C(=O)N*)cc1` (repeat unit), for which the glass transition temperature is 152.00 °C.
`*CCCC(C)(C)CNC(=O)c1cccc(C(=O)N*)c1` (repeat unit): the glass transition temperature was found to be 153.00 °C.
With `*CCCC(C)CN1C(=O)c2ccc(C(=O)Oc3ccc(-c4ccc(OC(=O)c5ccc6c(c5)C(=O)N(*)C6=O)cc4)cc3)cc2C1=O` (repeat unit), the glass transition temperature turned out to be 155.00 °C.
On to `*CCCC1CC(=O)N(*)C(=O)C1` (repeat unit), for which the glass transition temperature was found to be 90.00 °C.
With `*CCCCCCOc1ccc(NC(=O)c2cc(C(=O)Nc3ccc(O*)cc3)cc(C(C)(C)C)c2)cc1` (repeat unit), the glass transition temperature came to 166.00 °C.
The same measure for `*CCCCCCSS*` (repeat unit): -74.00 °C.
As for `*CCCCOCO*` (repeat unit), the glass transition temperature was -84.00 °C.
As for `*CCCN(*)C` (repeat unit), the glass transition temperature is -37.50 °C.
In turn, `*CCCP(CCCCCCCC)CCCNC(=O)CCCCC(=O)N*` (repeat unit) gave a glass transition temperature of 12.00 °C.
Regarding `*CCC[Si](*)(C)CCC[Si](C)(C)C` (repeat unit), the glass transition temperature was -46.00 °C.
Regarding `*CCC[Si](*)(C)O[Si](C)(C)CCCOc1ccc(C(=O)Oc2ccc(C#N)cc2)cc1` (repeat unit), the glass transition temperature is -19.10 °C.
In turn, `*CCC[Si](*)(C)c1cccc(C)c1` (repeat unit) displayed a glass transition temperature of -25.00 °C.
`*CCC[Si](*)(c1ccccc1)c1ccc(N(C)C)cc1` (repeat unit) registered a glass transition temperature of 52.00 °C.
In turn, `*CCC[Si](C)(C)O[Si](C)(C)CCCN1C(=O)c2ccc(-c3ccc4c(c3)C(=O)N(*)C4=O)cc2C1=O` (repeat unit) registered a glass transition temperature of 75.00 °C.
Consider `*CC[CH2][Sn]([CH3])([CH3])[CH2]CCOC(=O)C(CCCCCCOc1ccc(-c2ccc(OCc3ccc([N+](=O)[O-])cc3)cc2)cc1)C(=O)O*` (repeat unit), for which the glass transition temperature was 40.50 °C.
`*CCN(*)C(=O)C(C)C` (repeat unit) came in with a glass transition temperature of 30.00 °C.
In the case of `*CCN(*)C(=O)C(OC)(c1ccccc1)C(F)(F)F` (repeat unit), the glass transition temperature turned out to be 89.00 °C.
`*CCN(*)C(=O)C1(c2ccc(Cl)cc2)CCC1` (repeat unit) came in with a glass transition temperature of 112.00 °C.
`*CCN(*)C(=O)C1CC1` (repeat unit) had a glass transition temperature of 77.00 °C.
`*CCN(*)C(=O)CCC` (repeat unit) displayed a glass transition temperature of 42.00 °C.
On to `*CCN(*)C(=O)CCCC` (repeat unit), for which the glass transition temperature is 13.00 °C.
As for `*CCN(*)C(=O)c1c(F)cc(F)cc1F` (repeat unit), the figure is 135.00 °C.
As for `*CCN(*)C(=O)c1c(F)cccc1F` (repeat unit), the glass transition temperature was found to be 121.50 °C.
Compound `*CCN(*)C(=O)c1cc(F)c(F)c(F)c1F` (repeat unit) displayed a glass transition temperature of 97.00 °C.
For `*CCN(*)C(=O)c1cc(F)c(F)cc1F` (repeat unit), the glass transition temperature was found to be 105.00 °C.
As for `*CCN(*)C(=O)c1ccc(F)cc1` (repeat unit), the glass transition temperature turned out to be 104.00 °C.
Compound `*CCN(*)C(=O)c1cccc(F)c1` (repeat unit) returned a glass transition temperature of 97.00 °C.
Turning to `*CCN(*)C(=O)c1ccccc1F` (repeat unit), the glass transition temperature came out at 109.00 °C.
Turning to `*CCN(*)CC` (repeat unit), the glass transition temperature was -32.00 °C.
With `*CCN(*)CCOCCOC` (repeat unit), the glass transition temperature was 16.00 °C.
The same measure for `*CCN(*)CC[Si](C)(C)C` (repeat unit): -64.80 °C.
Compound `*CCN(*)Cc1ccccc1` (repeat unit) gave a glass transition temperature of -16.00 °C.
As for `*CCN(C)C(=O)CCCCCCCCC(=O)N(*)C` (repeat unit), the figure is 0.00 °C.
Consider `*CCN(CCOC(=O)NCCCCCCNC(=O)O*)c1ccc(/N=N/c2ccc([N+](=O)[O-])cc2)c(C)c1` (repeat unit), for which the glass transition temperature is 75.00 °C.
`*CCN(CCOC(=O)Nc1ccc(C)c(NC(=O)O*)c1)c1ccc(/C=C/c2cc[n+](CCCC)cc2)cc1` (repeat unit) registered a glass transition temperature of 121.00 °C.
Consider `*CCN(CCOC(=O)Nc1ccc(C)c(NC(=O)O*)c1)c1ccc(/N=N/c2ccc(-c3nc4ccc([N+](=O)[O-])cc4n3CC)cc2)cc1` (repeat unit), for which the glass transition temperature amounted to 158.00 °C.
`*CCN(CCOC(=O)Nc1ccc(C)c(NC(=O)O*)c1)c1ccc(/N=N/c2ccc(/N=N/c3cc(OC)c(/N=N/c4ccc([N+](=O)[O-])cc4)cc3OC)c(C)c2)cc1` (repeat unit) gave a glass transition temperature of 148.00 °C.
Consider `*CCN(CCOC(=O)Nc1ccc(C)c(NC(=O)O*)c1)c1ccc(/N=N/c2ccc([N+](=O)[O-])cc2C)cc1` (repeat unit), for which the glass transition temperature worked out at 137.00 °C.
`*CCN(CCOC(=O)c1cc(OCc2cc(OCc3ccccc3)cc(OCc3ccccc3)c2)cc(C(=O)O*)c1)c1ccc(/C=C/c2ccc(/C=C/C3=C(C#N)C(=C(C#N)C#N)OC3(c3ccccc3)C(F)(F)F)s2)cc1` (repeat unit) had a glass transition temperature of 130.00 °C.
In turn, `*CCN(CCOC(=O)c1ccc(C(=O)O*)c(OC)c1)c1ccc(/N=N/c2ccc(-c3nc4ccc([N+](=O)[O-])cc4n3CC)cc2)cc1` (repeat unit) showed a glass transition temperature of 146.00 °C.
For `*CCN(CCOC(=O)c1ccc(C(=O)O*)c(OC)c1)c1ccc(/N=N/c2ccc(/C=C/c3nc4ccc([N+](=O)[O-])cc4n3CC)cc2)cc1` (repeat unit), the glass transition temperature stood at 173.00 °C.
In turn, `*CCN(CCOC(=O)c1ccc(C(=O)O*)cc1)c1ccc(C=C(C#N)C#N)cc1` (repeat unit) registered a glass transition temperature of 127.00 °C.
As for `*Oc1ccc(NC(=O)c2cc(C(=O)Nc3ccc(*)cc3)c(C(=O)OCC)cc2C(=O)OCC)cc1` (repeat unit), the glass transition temperature came out at 208.1 °C.
`*Oc1ccc(NC(=O)c2cc(C(=O)Nc3ccc(Oc4ccc(C5(c6ccc(*)cc6)CC6CCC5C6)cc4)cc3)cc(C(C)(C)C)c2)cc1` (repeat unit) displayed a glass transition temperature of 272.00 °C.
The same measure for `*Oc1ccc(NC(=O)c2cc(C(c3ccc(C(=O)O)c(C(=O)Nc4ccc(Oc5ccc(C(c6ccc(*)cc6)(C(F)(F)F)C(F)(F)F)cc5)cc4)c3)(C(F)(F)F)C(F)(F)F)ccc2C(=O)O)cc1` (repeat unit): 260.00 °C.
Take `*Oc1ccc(NC(=O)c2cc(NC(=O)CCCCCN3C(=O)c4ccccc4C3=O)cc(C(=O)Nc3ccc(*)cc3)c2)cc1` (repeat unit): the glass transition temperature was 200.00 °C.
With `*Oc1ccc(NC(=O)c2cc(NC(=O)c3ccc(OC(C)=O)cc3)cc(C(=O)Nc3ccc(Oc4ccc(-c5ccc(*)cc5)cc4)cc3)c2)cc1` (repeat unit), the glass transition temperature is 252.00 °C.
In turn, `*c1ccc(OCCN(C)c2ccc(/C=C/C3=CC(=C4/C(=O)c5ccccc5C4=C(C#N)C#N)/C=C(/C=C/c4ccc(N(C)CCOc5ccc(-c6nc7ccc(Oc8ccc9nc(*)c(-c%10ccccc%10)nc9c8)cc7nc6-c6ccccc6)cc5)cc4)O3)cc2)cc1` (repeat unit) displayed a glass transition temperature of 260.00 °C.
`*c1ccc(OCCN(CCOc2ccc(-c3cc(-c4ccccc4)c4cc(Oc5ccc6nc(*)cc(-c7ccccc7)c6c5)ccc4n3)cc2)c2ccc(C(C#N)=C(C#N)C#N)cc2)cc1` (repeat unit) returned a glass transition temperature of 175.00 °C.
In turn, `*c1ccc(OCCN(CCOc2ccc(-c3nc4ccc(Oc5ccc6nc(*)c(-c7ccccc7)nc6c5)cc4nc3-c3ccccc3)cc2)c2ccc(/N=N/c3ccc([N+](=O)[O-])cc3)cc2)cc1` (repeat unit) came in with a glass transition temperature of 199.00 °C.
The compound `*c1ccc(OCCN(CCOc2ccc(-c3nc4ccc(Oc5ccc6nc(*)c(-c7ccccc7)nc6c5)cc4nc3-c3ccccc3)cc2)c2ccc(/N=N/c3ccc([N+](=O)[O-])cc3C)cc2)cc1` (repeat unit) had a glass transition temperature of 188.00 °C.
In turn, `*c1ccc(Oc2ccc(NC(=O)c3cc(NC(=O)c4ccc(OC(C)=O)cc4)cc(C(=O)Nc4ccc(Oc5ccc(-c6nnc(*)o6)cc5)cc4)c3)cc2)cc1` (repeat unit) registered a glass transition temperature of 270.00 °C.

(Values after the PolyMetriX glass transition set.)
